Data on 14 compounds can be found in DBAASP.

Converted amounts (≈) assume the structure as drawn.

Assay in all cases: ≥ marks a high value that may be exact or a test limit, other limits are often not marked, values filed in µg/mL are converted to µM
Test [1] concerns Micrococcus luteus A270.
Test [2] deals with Escherichia coli.
The subject of test [3] is Listeria innocua.
In test [4] the test system is Staphylococcus aureus ATCC 25923.
The subject of test [5] is Klebsiella pneumoniae ATCC 700603.
Test [6] concerns Escherichia coli ATCC 25726.
Test [7] has as its system Escherichia coli ATCC 25922.
For test [8], the system named is Pseudomonas aeruginosa ATCC 27853.
Test [9] deals with Staphylococcus aureus ATCC BAA-1556.
Test [10] deals with Klebsiella pneumoniae ATCC 13883.
The test system of test [11] is Staphylococcus aureus USA 300.
The subject of test [12] is Pseudomonas aeruginosa PAO1.
For test [13], the system named is Bacillus subtilis ATCC 23857.
For test [14], the system named is Candida albicans ATCC 10231.
The test system of test [15] is Pseudomonas aeruginosa ATCC 9027.
Test [16] deals with Staphylococcus epidermidis ATCC 12228.
In test [17] the test system is Candida albicans ATCC 90028.
The subject of test [18] is Staphylococcus aureus NCTC 8325.

Consider `CC(C)C[C@H](NC(=O)[C@H](CO)NC(=O)[C@H](C)NC(=O)[C@H](Cc1cnc[nH]1)NC(=O)[C@@H](NC(=O)[C@H](C)NC(=O)[C@@H]1CCCN1C(=O)[C@@H](NC(=O)[C@H](Cc1ccccc1)NC(=O)[C@H](CC(=O)O)NC(=O)[C@H](CO)NC(=O)[C@@H]1CCCN1C(=O)[C@H](CC(C)C)NC(=O)[C@H](Cc1cnc[nH]1)NC(=O)[C@H](CO)NC(=O)[C@H](C)NC(=O)[C@H](CC(C)C)NC(=O)[C@@H](NC(=O)[C@@H](N)C(C)C)[C@@H](C)O)[C@@H](C)O)C(C)C)C(=O)N[C@@H](CC(=O)O)C(=O)N[C@@H](CCCCN)C(=O)N[C@@H](Cc1ccccc1)C(=O)O` [VTLASHLPSDFTPAVHASLDKF], for which the figures for the minimal inhibitory concentration (MIC) in test [1], in [2] and in test [3] were at least 53 µM, 26 µM (≈ 61.2 µg/mL) and at least 53 µM, respectively.

On to `CC[C@H](C)[C@H](NC(=O)[C@H](CCC(=O)O)NC(=O)CNC(=O)[C@H](CC(C)C)NC(=O)[C@H](Cc1ccccc1)NC(=O)[C@H](C)NC(=O)[C@H](CCCCN)NC(=O)CNC(=O)[C@H](Cc1ccccc1)NC(=O)[C@H](CCCCN)NC(=O)CNC(=O)[C@H](C)NC(=O)[C@H](CO)NC(=O)[C@H](Cc1cnc[nH]1)NC(=O)[C@H](CC(C)C)NC(=O)[C@@H](NC(=O)[C@H](CCCCN)NC(=O)[C@H](CO)NC(=O)[C@@H](NC(=O)CN)C(C)C)[C@@H](C)CC)C(=O)N[C@@H](CCSC)C(=O)N[C@@H](CCCCN)C(=O)N[C@@H](CO)C(=O)O` [GVSKILHSAGKFGKAFLGEIMKS], for which the MIC (commonly the least concentration at which growth counts as inhibited) is above 100 µM in test [4]; 100 µM (≈ 241 µg/mL) in test [5]; at least 100 µM in test [6]; 50 µM (≈ 120 µg/mL) in test [7]; 200 µM (≈ 481 µg/mL) in test [8].

Compound `CC(C)C[C@H](NC(=O)[C@H](CCCCN)NC(=O)[C@H](CCCCN)NC(=O)[C@H](CC(C)C)NC(=O)[C@H](CC(C)C)NC(=O)[C@H](CC(C)C)NC(=O)[C@H](CC(C)C)NC(=O)[C@H](CC(C)C)NC(=O)[C@@H](N)CC(C)C)C(N)=O` [LLLLLLKKL] showed a minimal inhibitory concentration (MIC) in test [9] of at least 100 µM.

The compound `CC(C)C[C@H](NC(=O)[C@H](Cc1c[nH]c2ccccc12)NC(=O)[C@H](CCCN=C(N)N)NC(=O)[C@H](CC(C)C)NC(=O)[C@H](Cc1c[nH]c2ccccc12)NC(=O)[C@H](Cc1c[nH]c2ccccc12)NC(=O)[C@H](CC(C)C)NC(=O)[C@H](Cc1c[nH]c2ccccc12)NC(=O)[C@@H](N)CC(C)C)C(N)=O` [LWLWWLRWL] showed a minimal inhibitory concentration (MIC) in test [9] of 3.12 µM (≈ 4.28 µg/mL).

With `CC(C)C[C@H](NC(=O)[C@H](CCCCN)NC(=O)CNC(=O)[C@H](CC(C)C)NC(=O)[C@H](CC(C)C)NC(=O)[C@H](CC(C)C)NC(=O)[C@H](CO)NC(=O)[C@H](CC(C)C)NC(=O)[C@H](CC(C)C)NC(=O)[C@H](CC(C)C)NC(=O)[C@H](CO)NC(=O)[C@H](CC(C)C)NC(=O)CN)C(N)=O` [GLSLLLSLLLGKL], the MIC was 25 µM (≈ 33.5 µg/mL) in test [10], above 25 µM in [7], 6.2 µM (≈ 8.3 µg/mL) in [11] and above 25 µM in test [12].

On to `CC(C)C[C@H](NC(=O)[C@H](CC(C)C)NC(=O)[C@H](CO)NC(=O)[C@H](Cc1cnc[nH]1)NC(=O)[C@H](CO)NC(=O)[C@H](CC(C)C)NC(=O)[C@H](CC(C)C)NC(=O)[C@@H](N)CCCCN)C(=O)O` [KLLSHSLL], for which the MIC was at least 34 µM in test [1], 68 µM (≈ 61.9 µg/mL) in [2] and at least 34 µM in [3].

Consider `N=C(N)NCCC[C@H](NC(=O)[C@H](CCCNC(=N)N)NC(=O)[C@H](Cc1ccccc1)NC(=O)[C@H](Cc1ccccc1)NC(=O)[C@H](CCCNC(=N)N)NC(=O)[C@H](CCCNC(=N)N)NC(=O)[C@H](Cc1ccccc1)NC(=O)[C@H](Cc1ccccc1)NC(=O)[C@H](CCCNC(=N)N)NC(=O)[C@H](CCCNC(=N)N)NC(=O)[C@H](Cc1ccccc1)NC(=O)[C@H](Cc1ccccc1)NC(=O)[C@H](CCCNC(=N)N)NC(=O)[C@H](CCCNC(=N)N)NC(=O)[C@H](Cc1ccccc1)NC(=O)[C@@H](N)Cc1ccccc1)C(N)=O` [FFRRFFRRFFRRFFRR], for which the values for the MIC in test [13] and in test [14] were 8.18 µM (≈ 20 µg/mL) and above 20.5 µM, respectively.

With `CC[C@H](C)[C@H](NC(=O)[C@H](CCCCN)NC(=O)[C@H](CCCCN)NC(=O)[C@H](C)NC(=O)[C@@H](NC(=O)[C@H](C)NC(=O)[C@H](CC(C)C)NC(=O)[C@H](CC(C)C)NC(=O)[C@H](C)NC(=O)[C@H](CCCCN)NC(=O)[C@H](CC(C)C)NC(=O)[C@H](CC(N)=O)NC(=O)[C@@H](N)CC(C)C)C(C)C)C(N)=O` [LNLKALLAVAKKI], the MIC in test [4] stood at 64 µM (≈ 89.2 µg/mL); in test [5] it was 64 µM (≈ 89.2 µg/mL); in test [13], 16 µM (≈ 22.3 µg/mL); in [7], 16 µM (≈ 22.3 µg/mL); in test [15], 32 µM (≈ 44.6 µg/mL).

As to `CC[C@H](C)[C@H](NC(=O)CN)C(=O)N[C@H](C(=O)N[C@@H](C)C(=O)NCC(=O)N[C@H](C(=O)N[C@H](C(=O)N[C@H](C(=O)N[C@@H](CCCCN)C(=O)N[C@H](C(=O)N[C@@H](C)C(=O)N[C@@H](CCCCN)C(N)=O)[C@@H](C)CC)[C@@H](C)CC)[C@@H](C)CC)[C@@H](C)CC)[C@@H](C)CC` [GIIAGIIIKIAK], the MIC in test [13] was at least 128 µM; in [7] it was above 128 µM.

On to `CC[C@H](C)[C@H](NC(=O)[C@H](CCCN=C(N)N)NC(=O)[C@@H](NC(=O)[C@@H](NC(=O)[C@H](CCCCN)NC(=O)[C@@H](NC(=O)[C@H](CC(C)C)NC(=O)[C@@H](NC(=O)[C@@H](NC(=O)[C@H](CCCCN)NC(=O)[C@H](CCCN=C(N)N)NC(=O)[C@H](Cc1ccc(O)cc1)NC(=O)CNC(=O)[C@H](Cc1cnc[nH]1)NC(=O)[C@H](CC(N)=O)NC(=O)[C@@H](N)C(C)C)C(C)C)[C@@H](C)O)[C@@H](C)O)[C@@H](C)O)C(C)C)C(=O)N[C@@H](CCCCN)C(=O)N[C@@H](CCCCN)C(=O)N[C@@H](Cc1ccccc1)C(=O)N[C@@H](CCSC)C(=O)O` [VNHGYRKVTLTKTVRIKKFM], for which, in test [11], the MIC was at least 128 µM.

For `CC[C@H](C)[C@H](N)C(=O)N[C@@H](CC(C)C)C(=O)NCC(=O)N[C@H](C(=O)N[C@H](C(=O)N[C@@H](CC(C)C)C(=O)NCC(=O)N[C@@H](CC(C)C)C(=O)N[C@@H](CC(C)C)C(=O)N[C@@H](CCCCN)C(=O)N[C@@H](CC(N)=O)C(=O)N[C@@H](CC(C)C)C(N)=O)[C@@H](C)CC)[C@@H](C)O` [ILGTILGLLKNL], the MIC was 8 µM (≈ 10.1 µg/mL) in test [4], 4 µM (≈ 5.07 µg/mL) in test [16], 4 µM (≈ 5.07 µg/mL) in test [13] and 32 µM (≈ 40.5 µg/mL) in test [7].

Turning to `CC[C@H](C)[C@H](N)C(=O)N[C@@H](CC(C)C)C(=O)NCC(=O)N[C@H](C(=O)N[C@H](C(=O)N[C@@H](CC(C)C)C(=O)NCC(=O)N[C@@H](CC(C)C)C(=O)N[C@@H](CC(C)C)C(=O)N[C@@H](CCCCN)C(=O)N[C@H](C(=O)N[C@@H](CC(C)C)C(N)=O)[C@@H](C)O)[C@@H](C)CC)[C@@H](C)O` [ILGTILGLLKTL], the minimal inhibitory concentration (MIC) amounted to 8 µM (≈ 10 µg/mL) in test [4], 4 µM (≈ 5.01 µg/mL) in test [16], 4 µM (≈ 5.01 µg/mL) in test [13] and 64 µM (≈ 80.2 µg/mL) in test [7].

Turning to `CC[C@H](C)[C@H](N)C(=O)N[C@@H](CCCCN)C(=O)N[C@H](C(=O)N1CCC[C@H]1C(=O)N[C@@H](C)C(=O)N[C@H](C(=O)N[C@H](C(=O)N[C@@H](CCCCN)C(=O)N[C@@H](CC(=O)O)C(=O)N[C@H](C(=O)N[C@@H](CC(C)C)C(=O)N[C@@H](CCCCN)C(=O)N[C@@H](CCCCN)C(=O)N[C@H](C(=O)N[C@@H](C)C(=O)N[C@@H](CCCCN)C(=O)NCC(=O)N[C@H](C(=O)N[C@@H](CC(C)C)C(=O)N[C@@H](CO)C(=O)N[C@@H](C)C(=O)N[C@H](C(=O)N[C@@H](C)C(=O)NCC(=O)N[C@@H](C)C(=O)N[C@@H](CC(C)C)C(=O)N[C@H](C(=O)N[C@@H](CCC(N)=O)C(=O)O)[C@@H](C)O)C(C)C)C(C)C)C(C)C)[C@@H](C)O)C(C)C)C(C)C)[C@@H](C)CC` [IKIPAVVKDTLKKVAKGVLSAVAGALTQ], the MIC in test [4] is 40 µM (≈ 113 µg/mL); in test [5], 40 µM (≈ 113 µg/mL); in test [6], 20 µM (≈ 56.4 µg/mL); in [8], 40 µM (≈ 113 µg/mL); in [17] it was at least 80 µM.

As to `CC[C@H](C)[C@H](NC(=O)[C@H](CCCCN)NC(=O)[C@H](CCCCN)NC(=O)[C@H](C)NC(=O)[C@H](CC(C)C)NC(=O)[C@H](CC(N)=O)NC(=O)[C@@H](NC(=O)[C@H](CC(C)C)NC(=O)[C@@H](NC(=O)CNC(=O)[C@H](CC(C)C)NC(=O)[C@H](Cc1ccccc1)NC(=O)[C@@H](N)CC(N)=O)[C@@H](C)O)C(C)C)C(=O)N[C@@H](CC(C)C)C(N)=O` [NFLGTLVNLAKKIL], the MIC in test [4] is 16 µM (≈ 24.7 µg/mL); in test [6], at least 64 µM; in test [7], 40 µM (≈ 61.7 µg/mL); in test [18], 20 µM (≈ 30.9 µg/mL); in [17] it was at least 80 µM.
